Measured values published in US5580552A, “7-glycosyloxybenzopyran derivative and antiallergic agent containing the derivative as active ingredient” (priority 1994, dated 1996).

Assays:
[1] = test system: homologous passive cutaneous anaphylaxis (PCA) reaction; experiment: Effect on homologous passive cutaneous anaphylaxis (PCA) reaction in rats; format: in vivo, rats (male wistar); settings: 50 mg/kg oral, 1 hour before challenge (TABLE 2); for inhibition in vivo at 50 mg/kg: Rattus norvegicus, po, 0.5 h
Procedure: Effect on homologous passive cutaneous anaphylaxis (PCA) reaction in rats.
This experimental animal model is caused by immediate type allergic reaction namely, antigen-antibody reaction. In the following, the method of this pharmacological test will be explained.
Method: Male wistar rats (9 weeks old) were intradermally administered 0.05 ml of anti-serum against dinitrophenylated ascaris (DNP-As) into two sites on the shaved dorsal skin. 48 hours later, 7-glycosyloxybenzopyran derivatives (test compounds) suspended in 0.5% sodium carboxymethylcellulose (CMCNa) were given orally at a dose of 50 mg/kg to the animals. One hour after administration of Test compounds, the animals were induced anaphylaxis by injection of saline (1 ml) dissolving 5 mg of Evans Blue and 1 mg of Trinitrophenylated ascaris (TNP-As) into the tail vein of the animals. 30 minutes after induction of anaphylaxis, animals were anesthetized by ether and killed by bleeding, and were flayed dorsal skin. The determination of extravasated dye was performed according to the method of Katayama et al. (Microbiol. Immunol., Vol.22, P 89-101, 1978). As vehicle control group, only 0.5% CMCNa solution was administered orally, and as positive control group, Tranilast suspended in 0.5% CMCNa was administered orally at a dose of 100 mg/kg to the animals with the same method as the test compounds groups. Each experimental group consisted of 5 rats. [formula]

[2] = test system: experimental asthma model (airway resistance); experiment: Effect on experimental asthma model in guinea pigs (airway resistance); format: in vivo, guinea pigs (male hartley); settings: 50 mg/kg oral (TABLE 6); for inhibition in vivo at 50 mg/kg: Cavia porcellus, po, 0.5 h
Procedure: Effect on experimental asthma model in guinea pigs
The asthma is typical allergic disease and we carried out this pharmacological test by well known experimental asthma model in guinea pigs in order to comfirm that the compounds of the present invention suppress the asthma. In the following, the method of the pharmacological test will be explained.
Method: Male hartley guinea pigs were immunized by intraperitoneal injection of saline (1ml) containing 5 mg of ovalbumine (OVA) three times at interval of one week. 2 weeks after final immunization, the animals were challenged by inhalation of 1% OVA-saline solution for 1 minute and then the airway resistance of the animals were measured for 30 minutes with PULMOS-1 (Medical Interface Project Station Inc.) after the inhalation. The compounds of the present invention (test compounds) suspended in 0.5% CMCNa were given orally at a dose of 50 mg/kg. As positive control group, Disodium Cromoglicate (DSCG), well known anti-allergic agent, in saline were injected at a dose of 20 mg/kg into the vein of the animals. As vehicle control group, only 0.5% CMCNa solution were given orally. The inhibition (%) of the airway resistance in vehicle control group was calculated according to equation 5 and the result was shown in TABLE 6. Each experimental group consisted of 5 guinea pigs. [formula]
A: Maximum airway resistance in vehicle control group
B: Maximum airway resistance in test compounds group or positive control group

[3] = test system: contact dermatitis induced by picryl chloride; experiment: Effect on contact dermatitis induced by picryl chloride in mice; format: in vivo; settings: 50 mg/kg oral, 1 hour before and 16 hours after challenge, 24 hours after challenge; for inhibition in vivo at 50 mg/kg: Mus musculus, po, 24 h, read-out: Inhibition (%) against the increase of ear thickness
Procedure: Effect on contact dermatitis induced by picryl chloride in mice
The delayed type hypersensitization is inhibited by steroid drugs,but can not be effected by known anti-allergic agents. In the following, the method of the pharmacological test will be explained.
Method: Mice, shaved their abdominal skin on previous day, were immunized by applying 0.1 ml of acetone containing 7 mg of picryl chloride to the skin of the abdomen. 7 days after immunization, the thickness of the ear was measured with a dial thickness gauge, then mice were challenged by painting 5 μl of 1% picryl chloride olive oil solution to each side skin of left ear. 24 hours after challenge, the thickness of the left ear was measured again and the increase (%) of thickness was calculated according to equation 2. The compounds of the present invention (test compounds) suspended in 0.5% CMCNa were forcibly administered orally at a dose of 50 mg/kg at 1 hour before and 16 hours after challenge. As vehicle control group, only 0.5% CMCNa solution were administered orally, and as positive control group, Prednisolone, steroid hormone, and Tranilast were administered orally at the doses of 10 mg/kg and 100 mg/kg, respectively.
Increase (%)=(A-B)/B×100 (Equation 2)
A: thickness of the ear at 24 hours after challenge
B: thickness of the ear before challenge
Inhibition (%)=(C-D)/C×100 (equation 3)
C: The increase (%) in vehicle control group
D: The increase (%) in test compounds group or positive control group

Structure (SMILES)	inhibition in vivo at 50 mg/kg [1] [%]	inhibition in vivo at 50 mg/kg [2] [%]	inhibition in vivo at 50 mg/kg [3] [%]	Inhibition (%) of PCA reaction [1] [%]	Inhibition (%) of the airway resistance [2] [%]	Inhibition (%) against the increase of ear thickness [3] [%]
CCCCCCCCCCCCOc1c(O)c(=O)oc2cc(O[C@H]3O[C@H](CO)[C@@H](O)[C@H](O)[C@@H]3O)ccc12 [compound 134]	41.5	45.9	43.7			
CC(C)Oc1c(O)c(=O)oc2cc(O[C@H]3O[C@H](CO)[C@@H](O)[C@H](O)[C@@H]3O)ccc12 [compound 135]	40.3	47.1	44.6			
CC1CCC(Oc2c(O)c(=O)oc3cc(O[C@H]4O[C@H](CO)[C@@H](O)[C@H](O)[C@@H]4O)ccc23)CC1 (stereo partly drawn) [compound 136]	42.2	51.2	41.2			
C=COc1c(O)c(=O)oc2cc(O[C@H]3O[C@H](CO)[C@@H](O)[C@H](O)[C@@H]3O)ccc12 [compound 137]	41.7	45.4	43.5			
CCC=CCCOc1c(O)c(=O)oc2cc(O[C@H]3O[C@H](CO)[C@@H](O)[C@H](O)[C@@H]3O)ccc12 [compound 138]	42.5	50.8	44.7			
CC(C)=CCC/C(C)=C/COc1c(O)c(=O)oc2cc(O[C@H]3O[C@H](CO)[C@@H](O)[C@H](O)[C@@H]3O)ccc12 [compound 139]	41.8	47.2	42.1			
O=c1oc2cc(O[C@H]3O[C@H](CO)[C@@H](O)[C@H](O)[C@@H]3O)ccc2c(OCc2ccccc2)c1O [compound 140]	40.4	45.1	40.1			
CC(=O)Oc1c(OC(C)C)c2ccc(O[C@@H]3O[C@H](COCc4ccccc4)[C@@H](OCc4ccccc4)[C@H](OCc4ccccc4)[C@H]3OCc3ccccc3)cc2oc1=O [compound 145]	40.2	41.9	42.1			
O=c1oc2cc(O[C@@H]3O[C@H](CO)[C@@H](O)[C@H](O)[C@H]3O)ccc2c(O)c1O [compound 151]				45.4	49.7	46.5
O=c1oc2cc(O[C@@H]3O[C@H](CO)[C@@H](O)[C@H](O)[C@H]3O)ccc2c(OCc2ccccc2)c1O [compound 152]	41.3	52.4	43.2			
COc1c(O)c(=O)oc2cc(O[C@@H]3O[C@H](CO)[C@@H](O)[C@H](O)[C@H]3O)ccc12 [compound 153]				42.4	54.3	44.7
CCCCCCCCCCOc1c(O)c(=O)oc2cc(O[C@@H]3O[C@H](CO)[C@@H](O)[C@H](O)[C@H]3O)ccc12 [compound 154]				43.2	59.2	41.6
CCCCCCCCCCCCOc1c(O)c(=O)oc2cc(O[C@@H]3O[C@H](CO)[C@@H](O)[C@H](O)[C@H]3O)ccc12 [compound 155]				42.9	57.6	40.9
CC(C)Oc1c(O)c(=O)oc2cc(O[C@@H]3O[C@H](CO)[C@@H](O)[C@H](O)[C@H]3O)ccc12 [compound 156]				42.1	48.2	43.2
